Results as given in ChEMBL document CHEMBL1201862, “PubChem BioAssay data set” (2004).
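Protocol summary: plate cells (96-well), add compound at 5 concentrations, incubate 48 h, interpolate endpoints linearly. GI50 is the concentration that inhibits growth by half.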 Calls of active or inactive are those of the source. Cut-off read from the data, not from the text of the source: active = GI50 up to about 1.1 µM and inactive = higher.

Legend:
Assay in all cases: NCI-60 cell line screen, 48 h
786-0 = test system: 786-0
A498 = test system: A498
CAKI-1 = test system: CAKI-1
COLO 205 = test system: COLO 205
DU-145 = test system: DU-145
HCT-15 = test system: HCT-15
HOP-92 = test system: HOP-92
K562 = test system: K562
LOX IMVI = test system: LOX IMVI
MOLT-4 = test system: MOLT-4
NCI-H522 = test system: NCI-H522
OVCAR-3 = test system: OVCAR-3
PC-3 = test system: PC-3
RXF 393 = test system: RXF 393
SF-539 = test system: SF-539
SK-OV-3 = test system: SK-OV-3
SNB-19 = test system: SNB-19
SR = test system: SR
UACC-62 = test system: UACC-62
TK-10 = test system: TK-10

CCC1OC(=O)CC(O)C(C)C(OC2OC(C)CC(N(C)C)C2O)C(CC=O)CC(C)C(=O)/C=C/C2(C)OC2C1C (stereo not given)
GI50 (786-0): 17.2 µM (inactive)
GI50 (A498): 25.9 µM (inactive)
GI50 (CAKI-1): 31.5 µM (inactive)
GI50 (COLO 205): 16.9 µM (inactive)
GI50 (DU-145): 23.2 µM (inactive)
GI50 (HCT-15): 18.3 µM
GI50 (HOP-92): 27.9 µM (inactive)
GI50 (K562): 6.76 µM (inactive)
GI50 (LOX IMVI): 17.3 µM (inactive)
GI50 (MOLT-4): 16.5 µM (inactive)
GI50 (NCI-H522): 15 µM (inactive)
GI50 (OVCAR-3): 22.8 µM (inactive)
GI50 (PC-3): 26.6 µM (inactive)
GI50 (RXF 393): 17.2 µM (inactive)
GI50 (SF-539): 6.62 µM (inactive)
GI50 (SK-OV-3): 27.2 µM (inactive)
GI50 (SNB-19): 16.9 µM (inactive)
GI50 (SR): 13.9 µM (inactive)
GI50 (UACC-62): 14.1 µM (inactive)

COC(=O)c1nn2ccc3ccccc3c2c1C(=O)OC
GI50 (786-0): 75.2 µM (inactive)
GI50 (A498): 22.5 µM (inactive)
GI50 (CAKI-1): 48.9 µM (inactive)
GI50 (COLO 205): > 100 µM (inactive)
GI50 (DU-145): > 100 µM (inactive)
GI50 (HCT-15): 54.3 µM
GI50 (HOP-92): 96.2 µM (inactive)
GI50 (K562): 58.7 µM (inactive)
GI50 (LOX IMVI): 83.6 µM (inactive)
GI50 (MOLT-4): 39.9 µM (inactive)
GI50 (NCI-H522): > 100 µM (inactive)
GI50 (PC-3): 47.8 µM (inactive)
GI50 (RXF 393): 59.2 µM (inactive)
GI50 (SF-539): > 100 µM (inactive)
GI50 (SK-OV-3): > 100 µM (inactive)
GI50 (SNB-19): > 100 µM (inactive)
GI50 (SR): 41.1 µM (inactive)
GI50 (TK-10): > 100 µM (inactive)
GI50 (UACC-62): 36.6 µM (inactive)

C=CC(C)(C)n1cc(C2=C3OC(=O)C(c4cn(C(C)(C)C=C)c5ccccc45)=C3OC2=O)c2ccccc21
GI50 (786-0): > 100 µM (inactive)
GI50 (A498): > 100 µM (inactive)
GI50 (CAKI-1): > 100 µM (inactive)
GI50 (COLO 205): > 100 µM (inactive)
GI50 (DU-145): > 100 µM (inactive)
GI50 (HCT-15): > 100 µM
GI50 (HOP-92): > 100 µM (inactive)
GI50 (K562): > 100 µM (inactive)
GI50 (LOX IMVI): > 100 µM (inactive)
GI50 (MOLT-4): > 100 µM (inactive)
GI50 (NCI-H522): > 100 µM (inactive)
GI50 (OVCAR-3): > 100 µM (inactive)
GI50 (PC-3): > 100 µM (inactive)
GI50 (RXF 393): > 100 µM (inactive)
GI50 (SF-539): > 100 µM (inactive)
GI50 (SNB-19): > 100 µM (inactive)
GI50 (SR): > 100 µM (inactive)
GI50 (TK-10): > 100 µM (inactive)

Cc1nc(=O)[nH]c(NCCNCCO)c1C(=O)Nc1cccc2cc3ccccc3cc12
GI50 (786-0): > 100 µM (inactive)
GI50 (A498): > 100 µM (inactive)
GI50 (CAKI-1): > 100 µM (inactive)
GI50 (COLO 205): > 100 µM (inactive)
GI50 (DU-145): > 100 µM (inactive)
GI50 (HCT-15): > 100 µM
GI50 (HOP-92): > 100 µM (inactive)
GI50 (K562): > 100 µM (inactive)
GI50 (LOX IMVI): > 100 µM (inactive)
GI50 (MOLT-4): > 100 µM (inactive)
GI50 (NCI-H522): > 100 µM (inactive)
GI50 (OVCAR-3): > 100 µM (inactive)
GI50 (PC-3): > 100 µM (inactive)
GI50 (RXF 393): > 100 µM (inactive)
GI50 (SF-539): > 100 µM (inactive)
GI50 (SNB-19): > 100 µM (inactive)
GI50 (SR): > 100 µM (inactive)
GI50 (TK-10): > 100 µM (inactive)
GI50 (UACC-62): > 100 µM (inactive)

C/C(=N\O)c1ccc(OCc2cc(C(F)(F)F)cc(C(F)(F)F)c2)cc1
GI50 (786-0): 41.2 µM (inactive)
GI50 (A498): > 100 µM (inactive)
GI50 (CAKI-1): 78.2 µM (inactive)
GI50 (COLO 205): 29.9 µM (inactive)
GI50 (DU-145): > 100 µM (inactive)
GI50 (HCT-15): 30.5 µM
GI50 (HOP-92): 17.6 µM (inactive)
GI50 (K562): 33 µM (inactive)
GI50 (LOX IMVI): 39 µM (inactive)
GI50 (MOLT-4): 14.3 µM (inactive)
GI50 (NCI-H522): 38.1 µM (inactive)
GI50 (OVCAR-3): > 100 µM (inactive)
GI50 (PC-3): 34.1 µM (inactive)
GI50 (RXF 393): 21.8 µM (inactive)
GI50 (SF-539): 60.5 µM (inactive)
GI50 (SK-OV-3): > 100 µM (inactive)
GI50 (SNB-19): 64.1 µM (inactive)
GI50 (SR): 39.4 µM (inactive)
GI50 (TK-10): > 100 µM (inactive)

Cc1csc(CP(=O)(OC(C)C)OC(C)C)n1
GI50 (786-0): > 100 µM (inactive)
GI50 (A498): > 100 µM (inactive)
GI50 (CAKI-1): > 100 µM (inactive)
GI50 (COLO 205): > 100 µM (inactive)
GI50 (DU-145): > 100 µM (inactive)
GI50 (HCT-15): > 100 µM
GI50 (HOP-92): > 100 µM (inactive)
GI50 (K562): > 100 µM (inactive)
GI50 (LOX IMVI): > 100 µM (inactive)
GI50 (MOLT-4): > 100 µM (inactive)
GI50 (NCI-H522): > 100 µM (inactive)
GI50 (OVCAR-3): > 100 µM (inactive)
GI50 (PC-3): > 100 µM (inactive)
GI50 (RXF 393): > 100 µM (inactive)
GI50 (SF-539): > 100 µM (inactive)
GI50 (SK-OV-3): > 100 µM (inactive)
GI50 (SNB-19): > 100 µM (inactive)
GI50 (SR): > 100 µM (inactive)
GI50 (TK-10): > 100 µM (inactive)

COC(=O)c1ccccc1/C=C1/Cc2ccccc2C1=O
GI50 (786-0): > 10 µM (inactive)
GI50 (A498): > 100 µM (inactive)
GI50 (CAKI-1): 25.8 µM (inactive)
GI50 (COLO 205): 30 µM (inactive)
GI50 (DU-145): > 100 µM (inactive)
GI50 (HCT-15): 23.4 µM
GI50 (HOP-92): 61.1 µM (inactive)
GI50 (K562): 32.7 µM (inactive)
GI50 (LOX IMVI): 17.8 µM (inactive)
GI50 (MOLT-4): 24.4 µM (inactive)
GI50 (NCI-H522): 31.7 µM (inactive)
GI50 (OVCAR-3): 23.8 µM (inactive)
GI50 (PC-3): 48.2 µM (inactive)
GI50 (RXF 393): 54.6 µM (inactive)
GI50 (SF-539): > 100 µM (inactive)
GI50 (SK-OV-3): > 100 µM (inactive)
GI50 (SR): 22.2 µM (inactive)
GI50 (TK-10): > 100 µM (inactive)
GI50 (UACC-62): 36.1 µM (inactive)

CC(=O)[C@@H](C)C(=O)N1C(=O)OC[C@@]12[C@@H]1CC[C@@H](C1)C2(C)C
GI50 (786-0): > 100 µM (inactive)
GI50 (A498): > 100 µM (inactive)
GI50 (CAKI-1): 71.8 µM (inactive)
GI50 (COLO 205): > 100 µM (inactive)
GI50 (DU-145): > 100 µM (inactive)
GI50 (HCT-15): > 100 µM
GI50 (HOP-92): > 100 µM (inactive)
GI50 (K562): > 100 µM (inactive)
GI50 (LOX IMVI): > 100 µM (inactive)
GI50 (NCI-H522): > 100 µM (inactive)
GI50 (PC-3): > 100 µM (inactive)
GI50 (RXF 393): > 100 µM (inactive)
GI50 (SF-539): > 100 µM (inactive)
GI50 (SK-OV-3): > 100 µM (inactive)
GI50 (SNB-19): > 100 µM (inactive)
GI50 (SR): 78.7 µM (inactive)
GI50 (TK-10): > 100 µM (inactive)
GI50 (UACC-62): > 100 µM (inactive)

CO[C@@H]1C[C@H]2[C@@H]3CC[C@H]([C@@H](C)CO)[C@@]3(C)CC[C@@H]2[C@@]2(C)CC[C@H]3C[C@]312
GI50 (786-0): 42.1 µM (inactive)
GI50 (A498): > 100 µM (inactive)
GI50 (CAKI-1): 89.7 µM (inactive)
GI50 (COLO 205): 17.6 µM (inactive)
GI50 (DU-145): 85.5 µM (inactive)
GI50 (HCT-15): 33.3 µM
GI50 (HOP-92): 18.9 µM (inactive)
GI50 (K562): 22.8 µM (inactive)
GI50 (LOX IMVI): 19.3 µM (inactive)
GI50 (MOLT-4): 31.1 µM (inactive)
GI50 (NCI-H522): 19.7 µM (inactive)
GI50 (OVCAR-3): 45.1 µM (inactive)
GI50 (PC-3): 22.6 µM (inactive)
GI50 (RXF 393): 19.2 µM (inactive)
GI50 (SF-539): 43.1 µM (inactive)
GI50 (SNB-19): 53.6 µM (inactive)
GI50 (SR): 31.6 µM (inactive)
GI50 (TK-10): > 100 µM (inactive)

Cc1cc(=O)oc2c(CN3CCCCC3)c(O)ccc12
GI50 (786-0): > 100 µM (inactive)
GI50 (A498): > 100 µM (inactive)
GI50 (CAKI-1): > 100 µM (inactive)
GI50 (COLO 205): > 100 µM (inactive)
GI50 (DU-145): > 100 µM (inactive)
GI50 (HCT-15): > 100 µM
GI50 (HOP-92): > 100 µM (inactive)
GI50 (K562): > 100 µM (inactive)
GI50 (LOX IMVI): > 100 µM (inactive)
GI50 (MOLT-4): > 100 µM (inactive)
GI50 (NCI-H522): > 100 µM (inactive)
GI50 (OVCAR-3): > 100 µM (inactive)
GI50 (PC-3): > 100 µM (inactive)
GI50 (RXF 393): > 100 µM (inactive)
GI50 (SF-539): > 100 µM (inactive)
GI50 (SNB-19): > 100 µM (inactive)
GI50 (SR): > 100 µM (inactive)
GI50 (TK-10): > 100 µM (inactive)
GI50 (UACC-62): > 100 µM (inactive)

Cc1cc(=O)oc2c(C)c(O)ccc12
GI50 (786-0): > 100 µM (inactive)
GI50 (A498): 78.9 µM (inactive)
GI50 (CAKI-1): 55.6 µM (inactive)
GI50 (COLO 205): > 100 µM (inactive)
GI50 (DU-145): > 100 µM (inactive)
GI50 (HCT-15): > 100 µM
GI50 (HOP-92): > 100 µM (inactive)
GI50 (K562): > 100 µM (inactive)
GI50 (LOX IMVI): > 100 µM (inactive)
GI50 (MOLT-4): 89.1 µM (inactive)
GI50 (NCI-H522): > 100 µM (inactive)
GI50 (OVCAR-3): > 100 µM (inactive)
GI50 (PC-3): > 100 µM (inactive)
GI50 (RXF 393): > 100 µM (inactive)
GI50 (SF-539): > 100 µM (inactive)
GI50 (SNB-19): > 100 µM (inactive)
GI50 (SR): > 100 µM (inactive)
GI50 (UACC-62): 99.3 µM (inactive)
